{
  "source": "patent US5877210A",
  "about": "“Phosphotyrosine phosphatase inhibitors or phosphotyrosine kinase activators for controlling cellular proliferation” (priority 1995, dated 1999)",
  "key": {"[1]": {"tested_on": "Ramos B cells", "assay": "Ca2+ signaling in Ramos B cells", "format": "cell-based, human", "protocol": "(§1) Ca^2+ responses were measured using indo-1 (Molecular Probes, Eugene, Oreg.) and a model 50 HH/2150 flow cytometer (Ortho, Westwood, Mass.) as previously described (P. S. Rabinovitch et al., J. Immunol. 137:952-961 (1986)). The histograms were analyzed by programs (Cicero, Cytomation Inc., Ft. Collins, Colo.) that calculate the mean indo-1 violet/blue fluorescence ratio versus time. There are 100 data points on the X (time) axis for all flow cytometric data.\nIn the experiments shown in FIG. 22, Ramos B cells were treated overnight with the indicated concentrations of BMLOV. The baseline level of intracellular free Ca^2+ ([Ca^2+ ]i) was established for 1 min, and then the cells were treated with anti-human IgM F(ab')2 (α-μ). The gap in the trace reflects the addition of α-μ. An acute Ca^2+ response to the addition of BMLOV to the Ramos cells was not observed, in contrast to the rapid elevation of Ca^2+ observed following treatment with pervanadate or H2 O2 (G. L. Schieven et al., Blood 82:1212-1220 (1993)); G. L. Schieven et al., J. Biol. Chem. 268:16688-16692 (1993))."}, "[2]": {"tested_on": "Ramos B cells", "assay": "Cell cycle analysis by propidium iodide flow cytometry", "format": "cell-based, human", "protocol": "Ramos B cells treated with various concentrations of BMLOV for 16 hours were examined for their DNA content by propidium iodide staining followed by FACScan flow cytometric analysis using the SFIT program.\nCells were fixed, permeabilized and stained for their DNA content with propidium iodide as previously described (D. H. Pluznik et al., \"Colony Stimulating Factor (CSF) Controls Proliferation of CSF-Dependent Cells by Acting During the G1 Phase of the Cell Cycle,\" Proc. Natl. Acad. Sci. USA 81:7451-7455 (1984)). The stained cells were analyzed by flow cytometry on a FACScan (Becton-Dickinson) instrument. The percentage of cells in various stages of the cell cycle was calculated using the CellFIT program.\nIn FIG. 14, Ramos cells growing in log phase were treated with BMLOV for 48 hr at the indicated concentrations. DNA in the cells was stained with propidium iodide and quantitated by flow cytometry as described previously. The calculated percentage of cells at the stages of the cell cycle is shown. \"A\" marks apoptotic cells lacking normal amounts of DNA in the 5 μM dose panel."}, "[3]": {"assay": "Tolerability of BMLOV in mice", "format": "in vivo"}, "[4]": {"tested_on": "CEM", "assay": "Anti-phosphotyrosine immunoblot", "format": "cell-based, human", "settings": "16 hr"}, "[5]": {"tested_on": "Ramos B cells", "format": "cell-based, human", "from_the_text": "These effects were synergistic rather than additive in that an approximately 5-fold enhancement in sensitization for the combination treatment was observed relative to expected additive effects based on the use of either treatment alone."}, "[6]": {"tested_on": "BCL1", "assay": "[3H]thymidine incorporation assay", "format": "cell-based, murine", "settings": "for [3H]cpm incorporation: seven days", "protocol": "For each cell type, the cells were passaged uniformly for all drug doses given during the seven-day period. The cells were then pulsed for six hours with [^3 H]thymidine. The extent of DNA synthesis was then determined by counting the radioactivity incorporated into the cells.\nFor assays of cellular proliferation, cells were grown five days in the presence of the indicated concentrations of BMLOV, pulsed 6 hr with [^3 H]-thymidine (New England Nuclear, Boston, Mass.), and counted in a liquid scintillation counter. Human peripheral blood lymphocytes (PBL) from normal volunteers were isolated from lymphocyte separation medium (Litton Bionetics, Kensington, Md.) by density gradient centrifugation. Monocytes were depleted from PBL by two rounds of plastic absorption for 30 minutes at 37° C. B cells were enriched for by negative selection using complement plus monoclonal antibodies to CD2, CD3, CD4, and CD8 for complement depletion. Clonogenic assays of colony formation in methylcellulose medium were performed as previously described (F. M. Uckun et al. (1992), supra)."}, "[7]": {"tested_on": "H3347 carcinoma cells", "assay": "Anti-phosphotyrosine immunoblot", "format": "cell-based, human"}, "[8]": {"tested_on": "PHA-induced T cell blasts", "assay": "Ca2+ signaling in PHA T cell blasts", "format": "cell-based, human", "protocol": "as §1\nIn the experiments shown in FIG. 25, human PHA-induced T cell blasts were treated overnight with the indicated concentrations of BMLOV. In Panel A, the baseline level of intracellular free Ca^2+ ([Ca^2+ ]i) was established for 1 min, and then the cells were treated with biotinylated anti-CD3 mAb (G19-4). After 5 min avidin was added (gap in the trace) to cross-link the antibody. In Panel B, assays were performed as in Panel A, but in the presence of 5 mM EGTA. […] In the experiments shown in FIG. 26, cells were treated 16 h with BMLOV and then stimulated with anti-CD3 mAb G19-4 for 5 min. Cells were then washed and resuspended in fresh media at equal concentrations of BMLOV at 37° C. Cells were then harvested and lysed at times following the initiation of CD3 stimulation as indicated. Antibody binding in immunoblots was detected by ECL."}, "[9]": {"tested_on": "Jurkat", "format": "cell-based, human", "from_the_text": "The extent to which the T cells were being killed by BMLOV treatment relative to the Ramos B cells was therefore examined. […] The percentage of cells in each quadrant is indicated. The lower right quadrant contains the viable cells."}, "[10]": {"tested_on": "peripheral blood lymphocytes", "assay": "Leukocyte counts in mice after pV(phen)", "format": "in vivo, BALB/C mice", "settings": "one dose i.p.; for Absolute Counts: Eosinophil / Absolute Counts: Lymphocyte / Absolute Counts: Monocyte / Absolute Counts: Neutrophil: blood 24 hr later, individual animals", "from_the_text": "BALB/C mice received one dose of pV(phen) i.p. and their blood was examined 24 hr later."}},
  "note": "Several values for one entry are separate records, joined by “and”; a condition that tells them apart may be missing. Equal values may be shown once. Entries after “also recorded” stand apart in the source; their conditions may differ. Read-outs that look alike come from different tables or passages of the source.",
  "data": [
    {"smiles": "Cc1occc(=O)c1[O-].Cc1occc(=O)c1[O-].[O]=[V+2]", "note": "[BMLOV, Bis(maltolato)oxovanadium (IV)]", "values": [
      {"measurement": "Ca2+ signals induced by cross-linking sIgM", "setting": "[1]; 25 μM BMLOV, overnight", "value": "Complete inhibition"},
      {"measurement": "UV-induced Ca2+ signals", "setting": "[1]; Ramos B cells", "value": "greatly increased and prolonged UV-induced Ca^2+ signals"},
      {"measurement": "basal Ca2+ levels", "setting": "[1]; Ramos B cells, BMLOV 16 h", "value": "elevation of basal Ca^2+ levels"},
      {"measurement": "proportion of cells in G2/M", "setting": "[2]; 0 to 5 μM BMLOV", "value": "did not change substantially"},
      {"measurement": "proportion of cells in G1", "setting": "[2]; 5 μM BMLOV, control 34%", "value": 14, "unit": "%"},
      {"measurement": "proportion of cells in S phase", "setting": "[2]; 5 μM BMLOV, control 56%", "value": 77, "unit": "%"},
      {"measurement": "effect on cell cycle distribution, in words", "setting": "[2]; 16 hours, 0 to 5 μM BMLOV", "value": "preferentially deplete the proportion of cells in G1 while increasing the proportion in S phase"},
      {"measurement": "tolerability", "setting": "[3]; 1.6 mM BMLOV in drinking water continuously for 10 days", "value": "no overt ill effects"},
      {"measurement": "tolerability", "setting": "[3]; intraperitoneal doses up to 1 mg and oral doses up to 1.6 mg", "value": "without ill effects except for some temporary lethargy"},
      {"measurement": "induction of tyrosine phosphorylation", "setting": "[4]", "value": "only low levels of tyrosine phosphorylation"},
      {"measurement": "enhancement in sensitization relative to expected additive effects", "setting": "[5]; combination of BMLOV and radiation", "value": "approximately 5 fold"},
      {"measurement": "increase in cell death relative to radiation alone", "setting": "[5]; ramos b cells, 1 µM", "value": 10, "unit": "fold"},
      {"measurement": "increase in clonogenic cell death relative to radiation alone", "setting": "[5]; ramos b cells, 2 µM", "value": 50, "unit": "fold"},
      {"measurement": "[3H]cpm incorporation", "setting": "[6]; 1 μM BMLOV", "value": 265036, "unit": "cpm"},
      {"measurement": "[3H]cpm incorporation", "setting": "[6]; 5 μM BMLOV", "value": 226714, "unit": "cpm"},
      {"measurement": "[3H]cpm incorporation", "setting": "[6]; 10 μM BMLOV", "value": 55396, "unit": "cpm"},
      {"measurement": "[3H]cpm incorporation", "setting": "[6]; 25 μM BMLOV", "value": 195, "unit": "cpm"},
      {"measurement": "sensitivity of proliferation to BMLOV, in words", "setting": "[6]; 25 μM, 5 or 7 days", "value": "highly sensitive"},
      {"measurement": "induction of tyrosine phosphorylation", "setting": "[7]", "value": "weakly induce tyrosine phosphorylation"},
      {"measurement": "Ca2+ signals from crosslinking CD3 alone or with CD2 and CD4", "setting": "[8]; 25-50 μM BMLOV", "value": "prolong Ca^2+ signals"},
      {"measurement": "basal calcium levels", "setting": "[8]; 50 to 100 μM BMLOV, fifteen hours", "value": "markedly enhance basal calcium levels"},
      {"measurement": "effect on CD28 Ca2+ signals", "setting": "[8]; PHA T cell blasts", "value": "marked inhibition"},
      {"measurement": "Ca2+ signaling in T cells", "setting": "[8]; anti-CD3 cross-linking, BMLOV overnight (25 μM elsewhere in the source)", "value": "detectably stimulated Ca^2+ signaling; also recorded: increased and prolonged"}
    ]},
    {"smiles": "[Na+].[O]=[V-]12([O][O]1)[O][O]2.c1cnc2c(c1)ccc1cccnc12", "note": "[pV(phen), sodium (1,10-phenanthroline) oxodiperoxovanadium (V)]", "values": [
      {"measurement": "cells killed", "setting": "[9]; Jurkat, 10 μM pV(phen), three days", "value": "all the cells"},
      {"measurement": "cells killed", "setting": "[9]; human, jurkat cells, 48 h, 10 µM", "value": 98, "unit": "%"},
      {"measurement": "Absolute Counts: Eosinophil", "setting": "[10]; Dose 1 μM", "value": "244 and 26"},
      {"measurement": "Absolute Counts: Lymphocyte", "setting": "[10]; Dose 1 μM", "value": "3848 and 1612"},
      {"measurement": "Absolute Counts: Monocyte", "setting": "[10]; Dose 1 μM", "value": "488 and 104"},
      {"measurement": "Absolute Counts: Neutrophil", "setting": "[10]; Dose 1 μM", "value": "1525 and 858"},
      {"measurement": "Absolute Counts: Eosinophil", "setting": "[10]; Dose 2 μM", "value": "78 and 81"},
      {"measurement": "Absolute Counts: Lymphocyte", "setting": "[10]; Dose 2 μM", "value": "1560 and 2511"},
      {"measurement": "Absolute Counts: Monocyte", "setting": "[10]; Dose 2 μM", "value": "390 and 0"},
      {"measurement": "Absolute Counts: Neutrophil", "setting": "[10]; Dose 2 μM", "value": "1872 and 5508"},
      {"measurement": "effect on monocytes, in words", "setting": "[10]; 24 hr", "value": "no consistent effect was observed"},
      {"measurement": "number of neutrophils, in words", "setting": "[10]; 24 hr", "value": "substantially increased"},
      {"measurement": "number of peripheral blood lymphocytes, in words", "setting": "[10]; 24 hr", "value": "markedly reduced"}
    ]}
  ]
}
